Assay results as given in patent US9499486B2, “Kinase inhibitor” (RESPIVERT LIMITED, priority 2014, dated 2016).

Test system: PBMCs
Experiment: Cell mitosis assay (assay g)
Format: cell-based, human
Experimental: Peripheral blood mononucleocytes (PBMCs) from healthy subjects are separated from whole blood (Quintiles, London, UK) using a density gradient (Histopaque-1077, Sigma-Aldrich, Poole, UK). The PBMCs (3 million cells per sample) are subsequently treated with 2% PHA (phytohaemagglutinin, Sigma-Aldrich, Poole, UK) for 48 hr, followed by a 20 hr exposure to varying concentrations of test compounds. At 2 hr before collection, PBMCs are treated with demecolcine (0.1 μg/mL; Invitrogen, Paisley, UK) to arrest cells in metaphase. To observe mitotic cells, PBMCs are permeabilised and fixed by adding Intraprep (50 μL; Beckman Coulter, France), and stained with anti-phospho-histone 3 (0.26 ng/L; #9701; Cell Signalling, Danvers, Mass.) and propidium iodide (1 mg/mL; Sigma-Aldrich, Poole, UK) as previously described (Muehlbauer P. A. and Schuler M. J., Mutation Research, 2003, 537:117-130). Fluorescence is observed using an ATTUNE flow cytometer (Invitrogen, Paisley, UK), gating for lymphocytes.

COc1cc(Nc2cc(Oc3ccc(NC(=O)Nc4cc(C(C)(C)C)cc(NS(C)(=O)=O)c4OC)c4ccccc34)ccn2)ccc1C(=O)O [Example 1, 4-((4-((4-(3-(5-(tert-Butyl)-2-methoxy-3-(methylsulfonamido)phenyl)ureido)naphthalen-1-yl)oxy)pyridin-2-yl)amino)-2-methoxybenzoic acid]
impact on cell division (mitosis) in PBMCs compared with Reference Compound: markedly less active than the Reference Compound
